Reference: patent publication US5051403A (priority 1989, dated 1991)

Legend:
[1] = test system: OCT receptor sites, NG-108 cells; assay type: binding, Rat glioma x mouse neuroblastoma
[2] = test system: voltage-gated calcium channels, N1E115 mouse neuroblastoma cells; assay type: cell-based

Row | SMILES | concentration of specific binding sites [1] | ED50 (50% inhibition of calcium current) [2]
1 | CSCC[C@@H]1NC(=O)[C@H](CC(C)C)NC(=O)[C@H](CCCNC(=N)N)NC(=O)[C@H](CO)NC(=O)[C@@H]2CSSC[C@@H]3NC(=O)[C@H](CO)NC(=O)CNC(=O)[C@H]([C@@H](C)O)NC(=O)[C@H](CSSC[C@H](N)C(=O)N[C@@H](CCCCN)C(=O)NCC(=O)N[C@@H](CCCCN)C(=O)NCC(=O)N[C@@H](C)C(=O)N[C@@H](CCCCN)C(=O)N2)NC(=O)[C@H](CSSC[C@@H](C(N)=O)NC(=O)[C@H](CCCCN)NC(=O)CNC(=O)[C@H](CO)NC(=O)[C@H](CCCNC(=N)N)NC3=O)NC(=O)[C@H](CC(=O)O)NC(=O)[C@H](Cc2ccc(O)cc2)NC1=O [MVIIA] | 45.6 | –
2 | C[C@@H](O)[C@@H]1NC(=O)[C@H](Cc2ccc(O)cc2)NC(=O)[C@@H]2C[C@@H](O)CN2C(=O)[C@H](CC(N)=O)NC(=O)[C@@H]2CSSC[C@@H]3NC(=O)[C@H](CO)NC(=O)[C@H](CO)NC(=O)CNC(=O)[C@@H]4C[C@@H](O)CN4C(=O)[C@H](CO)NC(=O)[C@H](CCCCN)NC(=O)[C@@H](N)CSSC[C@H](NC(=O)[C@H](CSSC[C@@H](C(=O)N[C@@H](Cc4ccc(O)cc4)C(N)=O)NC(=O)[C@H](CCCNC(=N)N)NC(=O)[C@H](CCCCN)NC1=O)NC(=O)[C@H](CC(N)=O)NC(=O)[C@H](Cc1ccc(O)cc1)NC(=O)[C@H](CO)NC(=O)[C@H]([C@@H](C)O)NC(=O)[C@@H]1C[C@@H](O)CN1C(=O)[C@H](CO)NC3=O)C(=O)N[C@@H](CCCNC(=N)N)C(=O)N[C@@H](CO)C(=O)N2 [GVIA, HCysLysSer4HypGlySerSerCysSer4HypThrSerTyrAsnCysCysArgSerCysAsn4HypTyrLysArgCysTyr-NH2] | – | 12 nM
